Structures can show the parent of a compound that is named as a salt.
Target: Factor D (Homo sapiens (Human), UniProt P00746)
Experiment: biochemical
Type: biochemical
Settings: read-out: IC50

Sequence of Factor D (P00746 26-253): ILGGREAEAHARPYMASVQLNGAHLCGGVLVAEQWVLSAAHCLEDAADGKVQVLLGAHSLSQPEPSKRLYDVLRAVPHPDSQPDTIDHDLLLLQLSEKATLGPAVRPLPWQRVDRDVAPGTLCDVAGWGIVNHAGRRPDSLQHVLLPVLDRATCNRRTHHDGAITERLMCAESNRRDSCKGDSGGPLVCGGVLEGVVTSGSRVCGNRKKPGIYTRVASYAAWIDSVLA

Row | Structure (SMILES) | IC50
1 | CO[C@H]1[C@@H](C(=O)NCc2cccc(Cl)c2F)N(C(=O)Cn2nc(C(N)=O)c3ccncc32)C[C@@H]1F [Example 662, 1-{2-[(2S,3S,4S)-2-(3-Chloro-2-fluoro-benzylcarbamoyl)-4-fluoro-3-methoxy-pyrrolidin-1-yl]-2-oxo-ethyl}-1H-pyrazolo[3,4-c]pyridine-3-carboxylic acid amide] | 0.013 µM
2 | CO[C@H]1[C@@H](C(=O)NCc2cccc(Cl)c2F)N(C(=O)Cn2nc(C(N)=O)c3cnccc32)C[C@@H]1F [Example 663, 1-{2-[(2S,3S,4S)-2-(3-Chloro-2-fluoro-benzylcarbamoyl)-4-fluoro-3-methoxy-pyrrolidin-1-yl]-2-oxo-ethyl}-1H-pyrazolo[4,3-c]pyridine-3-carboxylic acid amide] | 0.036 µM
3 | CO[C@H]1[C@@H](C(=O)N[C@H](C)c2cccc(Cl)c2F)N(C(=O)Cn2nc(C(N)=O)c3ccncc32)C[C@@H]1F [Example 664, 1-(2-{(2S,3S,4S)-2-[(R)-1-(3-Chloro-2-fluoro-phenyl)-ethylcarbamoyl]-4-fluoro-3-methoxy-pyrrolidin-1-yl}-2-oxo-ethyl)-1H-pyrazolo[3,4-c]pyridine-3-carboxylic acid amide] | 0.024 µM
4 | CO[C@H]1[C@@H](C(=O)N[C@H](C)c2cccc(Cl)c2F)N(C(=O)Cn2nc(C(N)=O)c3cnccc32)C[C@@H]1F [Example 665, 1-(2-{(2S,3S,4S)-2-[(R)-1-(3-Chloro-2-fluoro-phenyl)-ethylcarbamoyl]-4-fluoro-3-methoxy-pyrrolidin-1-yl}-2-oxo-ethyl)-1H-pyrazolo[4,3-c]pyridine-3-carboxylic acid amide] | 0.058 µM
5 | CC(=O)c1cn(CC(=O)N2[C@@H]3C[C@@H]3C[C@H]2C(=O)NCc2cccc(Cl)c2F)c2ccc(OCc3ncccn3)cc12 [Example 666, (1R,3S,5R)-2-{2-[3-Acetyl-5-(pyrimidin-2-ylmethoxy)-indol-1-yl]-acetyl}-2-aza-bicyclo [3.1.0]hexane-3-carboxylic acid 3-chloro-2-fluoro-benzylamide] | 0.006 µM
6 | CCO[C@H]1[C@@H](C(=O)NCc2cccc(Cl)c2F)N(C(=O)Cn2cc(C(C)=O)c3cc(C)ncc32)C[C@@H]1F [Example 667, (2S,3S,4S)-1-[2-(3-Acetyl-5-methyl-pyrrolo[2,3-c]pyridin-1-yl)-acetyl]-3-ethoxy-4-fluoro-pyrrolidine-2-carboxylic acid 3-chloro-2-fluoro-benzylamide formate] | 0.016 µM
7 | NC(=O)c1nn(CC(=O)N2[C@@H]3C[C@@H]3C[C@H]2C(=O)Nc2cccc(Br)c2F)c2cnccc12 [Example 668, 1-{2-[(1R,3S,5R)-3-(3-Bromo-2-fluoro-phenylcarbamoyl)-2-aza-bicyclo[3.1.0]hex-2-yl]-2-oxo-ethyl}-1H-pyrazolo[3,4-c]pyridine-3-carboxylic acid amide] | 0.019 µM
8 | Cc1cc2c(C(N)=O)nn(CC(=O)N3[C@@H]4C[C@@H]4C[C@H]3C(=O)Nc3cccc(Br)c3F)c2cn1 [Example 670, 1-{2-[(1R,3S,5R)-3-(3-Bromo-2-fluoro-phenylcarbamoyl)-2-aza-bicyclo[3.l.0]hex-2-yl]-2-oxo-ethyl}-5-methyl-1H-pyrazolo[3,4-c]pyridine-3-carboxylic acid amide] | 0.09 µM
9 | CCc1cc2c(C(N)=O)nn(CC(=O)N3[C@@H]4C[C@@H]4C[C@H]3C(=O)Nc3cccc(Br)c3F)c2cn1 [Example 671, 1-{2-[(1R,3S,5R)-3-(3-Bromo-2-fluoro-phenylcarbamoyl)-2-aza-bicyclo[3.1.0]hex-2-yl]-2-oxo-ethyl}-5-ethyl-1H-pyrazolo[3,4-c]pyridine-3-carboxylic acid amide] | 0.077 µM
10 | CC(C)c1cccc(NC(=O)[C@@H]2C[C@H]3C[C@H]3N2C(=O)Cn2nc(C(N)=O)c3ccncc32)n1 [Example 673, 1-{2-[(1R,3S,5R)-3-(6-Isopropyl-pyridin-2-ylcarbamoyl)-2-aza-bicyclo [3.1.0]hex-2-yl]-2-oxo-ethyl}-1H-pyrazolo[3,4-c]pyridine-3-carboxylic acid amide] | 0.157 µM
11 | NC(=O)c1nn(CC(=O)N2[C@@H]3C[C@@H]3C[C@H]2C(=O)Nc2cccc(C3CC3)c2F)c2ccccc12 [Example 674, 1-{2-[(1R,3S,5R)-3-(3-Cyclopropyl-2-fluoro-phenylcarbamoyl)-2-aza-bicyclo[3.2.1]hex-2-yl]-2-oxo-ethyl}-1H-indazole-3-carboxylic acid amide] | 0.075 µM
12 | C[C@@]12C[C@@H](C(=O)NCc3cccc(Cl)c3F)N(C(=O)Cn3nc(C(N)=O)c4ccncc43)[C@@H]1C2 [Example 675, 1-{2-[(1R,3S,5R)-3-(3-Chloro-2-fluoro-benzylcarbamoyl)-5-methyl-2-aza-bicyclo [3.1.0]hex-2-yl]-2-oxo-ethyl}-1H-pyrazolo[3,4-c]pyridine-3-carboxylic acid amide] | 0.023 µM
13 | CC(=O)c1nn(CC(=O)N2[C@@H]3C[C@@H]3C[C@H]2C(=O)N[C@H](CO)c2cccc(Cl)c2F)c2ncccc12 [Example 677, (1R,3S,5R)-2-[2-(3-Acetyl-pyrazolo[3,4-b]pyridin-1-yl)-acetyl]-2-aza-bicyclo [3.1.0]hexane-3-carboxylic acid [(S)-1-(3-chloro-2-fluoro-phenyl)-2-hydroxy-ethyl]-amide] | 0.01 µM
14 | COC[C@@H](NC(=O)[C@@H]1C[C@H]2C[C@H]2N1C(=O)Cc1nc(C(C)=O)c2ccccn12)c1cccc(Cl)c1F [Example 678, (1R,3S,5R)-2-[2-(1-Acetyl-imidazo[1,5-a]pyridin-3-yl)-acetyl]-2-aza-bicyclo [3.1.0]hexane-3-carboxylic acid [(S)-1-(3-chloro-2-fluoro-phenyl)-2-methoxy-ethyl]-amide] | 0.04 µM
15 | CC(=O)c1nc(CC(=O)N2[C@@H]3C[C@@H]3C[C@H]2C(=O)N[C@H](CC#N)c2cccc(Cl)c2F)n2ccccc12 [Example 679, (1R,3S,5R)-2-[2-(1-Acetyl-imidazo[1,5-a]pyridin-3-yl)-acetyl]-2-aza-bicyclo[3.1.0]hexane-3-carboxylic acid [(R)-1-(3-chloro-2-fluoro-phenyl)-2-cyano-ethyl]-amide] | 0.134 µM
16 | CO[C@H]1[C@@H](C(=O)NCc2cccc(Cl)c2F)N(C(=O)Cn2nc(C(C)=O)c3ccccc32)C[C@@H]1F [Example 680, (2S,3S,4S)-1-[2-(3-Acetyl-indazol-1-yl)-acetyl]-4-fluoro-3-methoxy-pyrrolidine-2-carboxylic acid 3-chloro-2-fluoro-benzylamide] | 0.016 µM
17 | CO[C@H]1[C@@H](C(=O)NCc2cccc(Cl)c2F)N(C(=O)Cn2cc(C(C)=O)c3ccncc32)C[C@@H]1F [Example 681, (2S,3S,4S)-1-[2-(3-Acetyl-pyrrolo[2,3-c]pyridin-1-yl)-acetyl]-4-fluoro-3-methoxy-pyrrolidine-2-carboxylic acid 3-chloro-2-fluoro-benzylamide] | 0.019 µM
18 | CO[C@H]1[C@@H](C(=O)NCc2cccc(Cl)c2F)N(C(=O)Cn2nc(C(C)=O)c3ccncc32)C[C@@H]1F [Example 682, (2S,3S,4S)-1-[2-(3-Acetyl-pyrazolo[3,4-c]pyridin-1-yl)-acetyl]-4-fluoro-3-methoxy-pyrrolidine-2-carboxylic acid 3-chloro-2-fluoro-benzylamide] | 0.012 µM
19 | NC(=O)c1nn(CC(=O)N2[C@@H]3C[C@@H]3C[C@H]2C(=O)Nc2cccc(-c3ccccc3F)c2F)c2cnccc12 [Example 684, 1-{2-[(1R,3S,5R)-3-(2,2′-Difluoro-biphenyl-3-ylcarbamoyl)-2-aza-bicyclo[3.1.0]hex-2-yl]-2-oxo-ethyl}-1H-pyrazolo[3,4-c] pyridine-3-carboxylic acid amide] | 0.027 µM
20 | NC(=O)c1nn(CC(=O)N2[C@@H]3C[C@@H]3C[C@H]2C(=O)Nc2cccc(-c3ccccc3Cl)c2F)c2cnccc12 [Example 685, 1-{2-[(1R,3S,5R)-3-(2′-Chloro-2-fluoro-biphenyl-3-ylcarbamoyl)-2-aza-bicyclo[3.1.0]hex-2-yl]-2-oxo-ethyl}-1H-pyrazolo[3,4-c] pyridine-3-carboxylic acid amide] | 0.005 µM
21 | NC(=O)c1nn(CC(=O)N2[C@@H]3C[C@@H]3C[C@H]2C(=O)Nc2cccc(-c3ncccc3F)c2F)c2ccccc12 [Example 686, 1-(2-{(1R,3S,5R)-3-[2-Fluoro-3-(3-fluoro-pyridin-2-yl)-phenylcarbamoyl]-2-aza-bicyclo[3.1.0]hex-2-yl}-2-oxo-ethyl)-1H-indazole-3-carboxylic acid amide] | 0.03 µM
22 | Cc1cccnc1-c1cccc(NC(=O)[C@@H]2C[C@H]3C[C@H]3N2C(=O)Cn2nc(C(N)=O)c3ccncc32)c1F [Example 687, 1-(2-{(1R,3S,5R)-3-[2-Fluoro-3-(3-methyl-pyridin-2-yl)-phenylcarbamoyl]-2-aza-bicyclo[3.1.0]hex-2-yl}-2-oxo-ethyl)-1H-pyrazolo[3,4-c] pyridine-3-carboxylic acid amide] | 0.098 µM
23 | NC(=O)c1nn(CC(=O)N2[C@@H]3C[C@@H]3C[C@H]2C(=O)Nc2cccc(-c3ncccc3Cl)c2F)c2cnccc12 [Example 688, 1-(2-{(1R,3S,5R)-3-[3-(3-Chloro-pyridin-2-yl)-2-fluoro-phenylcarbamoyl]-2-aza-bicyclo[3.1.0]hex-2-yl}-2-oxo-ethyl)-1H-pyrazolo[3,4-c] pyridine-3-carboxylic acid amide] | 0.01 µM
24 | COC(=O)c1ccc2c(C(C)=O)cn(CC(=O)N3[C@@H]4C[C@@H]4C[C@H]3C(=O)NCc3cccc(Cl)c3F)c2n1 [Example 689, 3-Acetyl-1-{2-[(1R,3S,5R)-3-(3-chloro-2-fluoro-benzylcarbamoyl)-2-aza-bicyclo[3.1.0]hex-2-yl]-2-oxo-ethyl}-1H-pyrrolo[2,3-b] pyridine-6-carboxylic acid methyl ester] | 0.156 µM
25 | C[C@@H](NC(=O)[C@@H]1C[C@@H](F)CN1C(=O)Cn1nc(C(N)=O)c2ccncc21)c1cccc(Cl)c1F [Example 690, 1-(2-{(2S,4R)-2-[(R)-1-(3-Chloro-2-fluoro-phenyl)-ethylcarbamoyl]-4-fluoro-pyrrolidin-1-yl}-2-oxo-ethyl)-1H-pyrazolo[3,4-c]pyridine-3-carboxylic acid amide] | 0.034 µM

Reference: patent US9085555B2, “Complement pathway modulators and uses thereof” (priority 2011, dated 2015)
